In PubChem BioAssay AID328 (DTP/NCI, 2004):
“And” between values parts separate entries of the source, which are not always exact repeats. Equal entries are not always repeated. Toxic doses and inconclusive results are not listed. The calls were made as follows: active = survival T/C of 150% or more; inactive = T/C below 125% in these data.

Tested on: BDF1 mice, P388 leukemia ip, median survival T/C
Assay: NCI In Vivo Anticancer Drug Screen. Data for tumor model P388 Leukemia (intraperitoneal) in B6D2F1 (BDF1) mice
Conditions: endpoint: median survival time, higher = longer survival
Method in brief: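 Compound-treated tumour-bearing mice were compared with vehicle-treated controls. Survival was recorded, and the value is the treated-group measurement divided by the control-group measurement (T/C).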

[1] = dose: 50.0 mg/kg/injection, schedule: Q01DX009 (ip), vehicle: saline with Tween-80
[2] = dose: 100.0 mg/kg/injection, schedule: Q01DX009 (ip), vehicle: saline with Tween-80
[3] = dose: 150.0 mg/kg/injection, schedule: Q01DX009 (ip), vehicle: Klucel (hydroxypropylcellulose) (HPC)
[4] = dose: 200.0 mg/kg/injection, schedule: Q01DX009 (ip), vehicle: saline with Tween-80
[5] = dose: 300.0 mg/kg/injection, schedule: Q01DX009 (ip), vehicle: Klucel (hydroxypropylcellulose) (HPC)
[6] = dose: 6.25 mg/kg/injection, schedule: Q01DX009 (ip), vehicle: saline
[7] = dose: 12.5 mg/kg/injection, schedule: Q01DX009 (ip), vehicle: saline
[8] = dose: 25.0 mg/kg/injection, schedule: Q01DX009 (ip), vehicle: saline
[9] = dose: 75.0 mg/kg/injection, schedule: Q01DX009 (ip), vehicle: Klucel (hydroxypropylcellulose) (HPC)
[10] = dose: 100.0 mg/kg/injection, schedule: Q04DX003 (ip), vehicle: saline with Tween-80
[11] = dose: 200.0 mg/kg/injection, schedule: Q04DX003 (ip), vehicle: saline with Tween-80
[12] = dose: 400.0 mg/kg/injection, schedule: Q04DX003 (ip), vehicle: saline with Tween-80
[13] = dose: 400.0 mg/kg/injection, schedule: Q01DX009 (ip), vehicle: saline with Tween-80

Measured: T/C

COc1ccc(C=Nc2ccc(OC(C)=O)cc2)cc1
inactive: dose: 45.0 mg/kg/injection, schedule: Q01DX009 (ip), vehicle: Klucel (hydroxypropylcellulose) (HPC) 105 % of control | [1] 110 % of control | dose: 65.0 mg/kg/injection, schedule: Q01DX009 (ip), vehicle: Klucel (hydroxypropylcellulose) (HPC) 110 % of control | dose: 100.0 mg/kg/injection, schedule: Q01DX009 (ip), vehicle: Klucel (hydroxypropylcellulose) (HPC) 110 % of control | [2] 100 % of control | dose: 100.0 mg/kg/injection, schedule: Q04DX003 (ip), vehicle: saline 104 % of control | [3] 105 % of control | dose: 200.0 mg/kg/injection, schedule: Q01DX009 (ip), vehicle: Klucel (hydroxypropylcellulose) (HPC) 115 % of control | dose: 200.0 mg/kg/injection, schedule: Q01DX009 (ip), vehicle: other 104 % of control | [4] 120 % of control | dose: 200.0 mg/kg/injection, schedule: Q04DX003 (ip), vehicle: saline 118 % of control | [5] 120 % of control | dose: 400.0 mg/kg/injection, schedule: Q01DX009 (ip), vehicle: other 95 % of control | dose: 400.0 mg/kg/injection, schedule: Q04DX003 (ip), vehicle: saline 109 % of control

CC(C)(C)C1CC[N-]CC1.CC(C)(C)C1CC[N-]CC1.[Cl][Pt+2]([Cl])([Cl])[Cl]
inactive: dose: 0.78 mg/kg/injection, schedule: Q01DX009 (ip), vehicle: saline 110 % of control | dose: 1.56 mg/kg/injection, schedule: Q01DX009 (ip), vehicle: saline 115 % of control and 117 % of control | dose: 3.12 mg/kg/injection, schedule: Q01DX009 (ip), vehicle: saline 100 % of control and 102 % of control and 111 % of control | [6] 86 % of control and 108 % of control | [7] 115 % of control | [8] 91 % of control and 115 % of control

CCCCCCCCCSC(=S)N(C)NC(=O)c1ccccn1
inactive: [1] 98 % of control | [2] 98 % of control

CCCCC(C(C)=O)C(C)C (configuration not stated)
inactive: [9] 90 % of control | dose: 100.0 mg/kg/injection, schedule: Q04DX003 (ip), vehicle: Klucel (hydroxypropylcellulose) (HPC) 111 % of control | [3] 90 % of control | dose: 200.0 mg/kg/injection, schedule: Q04DX003 (ip), vehicle: Klucel (hydroxypropylcellulose) (HPC) 96 % of control | [5] 95 % of control | dose: 400.0 mg/kg/injection, schedule: Q04DX003 (ip), vehicle: Klucel (hydroxypropylcellulose) (HPC) 96 % of control

O=C1c2ccccc2-c2cccc3cccc1c23
inactive: dose: 6.25 mg/kg/injection, schedule: Q01DX001 (ip), vehicle: saline sonified 96 % of control | dose: 12.5 mg/kg/injection, schedule: Q01DX001 (ip), vehicle: saline sonified 96 % of control | dose: 25.0 mg/kg/injection, schedule: Q01DX001 (ip), vehicle: saline sonified 92 % of control

Cc1ccc(C2(C(=O)O)CC2)cc1
inactive: [10] 100 % of control | [11] 104 % of control | [12] 108 % of control

O=c1cccc2n1CC1CNC[C@H]2C1
inactive: dose: 1.5 mg/kg/injection, schedule: Q01DX010 (ip), vehicle: saline 104 % of control | dose: 3.0 mg/kg/injection, schedule: Q01DX010 (ip), vehicle: saline 109 % of control | dose: 6.0 mg/kg/injection, schedule: Q01DX010 (ip), vehicle: saline 109 % of control

Cc1cc(=O)[nH]c(N/N=C/c2ccc(O)cc2)n1
inactive: [9] 104 % of control | [3] 109 % of control | [5] 95 % of control

Nc1[nH]c(=O)ncc1[N+](=O)[O-]
inactive: [1] 102 % of control | [2] 118 % of control

C1CCN(NC2=NCCO2)CC1
inactive: [7] 95 % of control | [8] 108 % of control | dose: 50.0 mg/kg/injection, schedule: Q01DX009 (ip), vehicle: saline 100 % of control

C=C(C(N)=O)c1cc(Cl)ccc1Cl
inactive: dose: 100.0 mg/kg/injection, schedule: Q01DX009 (ip), vehicle: water 110 % of control | [10] 100 % of control | dose: 200.0 mg/kg/injection, schedule: Q01DX009 (ip), vehicle: water 100 % of control | [11] 95 % of control | dose: 400.0 mg/kg/injection, schedule: Q01DX009 (ip), vehicle: water 100 % of control | [12] 95 % of control

NC(Cc1ccc([N+](=O)[O-])cc1)C(=O)O (configuration not stated)
inactive: [2] 105 % of control | dose: 100.0 mg/kg/injection, schedule: Q01DX009 (ip), vehicle: saline 100 % of control | dose: 100.0 mg/kg/injection, schedule: Q04DX003 (ip), vehicle: other 100 % of control | [4] 110 % of control | dose: 200.0 mg/kg/injection, schedule: Q01DX009 (ip), vehicle: saline 100 % of control | dose: 200.0 mg/kg/injection, schedule: Q04DX003 (ip), vehicle: other 104 % of control | [13] 90 % of control | dose: 400.0 mg/kg/injection, schedule: Q01DX009 (ip), vehicle: saline 86 % of control | dose: 400.0 mg/kg/injection, schedule: Q04DX003 (ip), vehicle: other 100 % of control

CCOC(=O)C1SC(=S)N(C)C1=O (configuration not stated)
inactive: [1] 94 % of control | [2] 100 % of control | [4] 100 % of control

CC(=O)N1c2ccccc2Sc2cc(C(O)(C(F)(F)F)C(F)(F)F)ccc21
inactive: dose: 25.0 mg/kg/injection, schedule: Q01DX009 (ip), vehicle: saline with Tween-80 86 % of control | [1] 90 % of control | [2] 90 % of control

COc1ccc(C=Nc2ccccc2N=Cc2ccc(OC)c(OC)c2)cc1OC
inactive: [2] 113 % of control | [10] 110 % of control | [4] 100 % of control | [11] 110 % of control | [13] 100 % of control | [12] 100 % of control

Cc1ccc(N2CCNCC2)cc1
inactive: dose: 6.25 mg/kg/injection, schedule: Q04DX003 (ip), vehicle: saline sonified 95 % of control | dose: 12.5 mg/kg/injection, schedule: Q04DX003 (ip), vehicle: saline sonified 100 % of control | dose: 25.0 mg/kg/injection, schedule: Q04DX003 (ip), vehicle: saline sonified 100 % of control

CN(C)CNc1ncnc2onc(-c3ccccc3)c12
inactive: dose: 50.0 mg/kg/injection, schedule: Q01DX009 (ip), vehicle: other 100 % of control | dose: 100.0 mg/kg/injection, schedule: Q01DX009 (ip), vehicle: other 102 % of control

CCCCCCCCCCCCCCCCCCNC(=O)Nc1ccc(C)c(C)c1
inactive: [10] 109 % of control | [11] 109 % of control | [12] 109 % of control

O=C(O)C(Br)(C(=O)O)c1ccccc1
inactive: dose: 100.0 mg/kg/injection, schedule: Q04DX002 (ip), vehicle: saline with Tween-80 93 % of control | dose: 200.0 mg/kg/injection, schedule: Q04DX002 (ip), vehicle: saline with Tween-80 97 % of control | dose: 400.0 mg/kg/injection, schedule: Q04DX002 (ip), vehicle: saline with Tween-80 93 % of control

O=C1C=C(Nc2ccc(O)cc2)c2ccccc2C1=O
inactive: [6] 95 % of control | [7] 104 % of control | [8] 100 % of control

CCCCCn1c(Cl)c(/C=N\Nc2ccc([N+](=O)[O-])cc2[N+](=O)[O-])c2ccccc21
inactive: dose: 100.0 mg/kg/injection, schedule: Q04DX002 (ip), vehicle: Klucel (hydroxypropylcellulose) (HPC) 88 % of control | dose: 200.0 mg/kg/injection, schedule: Q04DX002 (ip), vehicle: Klucel (hydroxypropylcellulose) (HPC) 89 % of control | dose: 400.0 mg/kg/injection, schedule: Q04DX002 (ip), vehicle: Klucel (hydroxypropylcellulose) (HPC) 90 % of control

COC(=O)C(Sc1ccccc1N)C1SC(=S)N(Cc2ccccc2)C1=O (configuration not stated)
inactive: [1] 95 % of control | [2] 104 % of control | [4] 113 % of control
